Assay results taken from paper PMC3413742 (Biological psychiatry, 2012).

Columns and labels:
[1] = tested on: mice trained to discriminate cocaine (10 mg/kg) from saline; assay: Cocaine discrimination procedure; type: in vivo, mouse; conditions: for substitution for the discriminative-stimulus effects of cocaine: pretreatment time 60 min
[2] = biological target: T1, hDAT WT (Homo sapiens, UniProt Q01959); assay: [3H]DA uptake inhibition in COS-7 cells transiently expressing hDAT WT; type: cell-based
T1 sequence (Q01959 whole entry): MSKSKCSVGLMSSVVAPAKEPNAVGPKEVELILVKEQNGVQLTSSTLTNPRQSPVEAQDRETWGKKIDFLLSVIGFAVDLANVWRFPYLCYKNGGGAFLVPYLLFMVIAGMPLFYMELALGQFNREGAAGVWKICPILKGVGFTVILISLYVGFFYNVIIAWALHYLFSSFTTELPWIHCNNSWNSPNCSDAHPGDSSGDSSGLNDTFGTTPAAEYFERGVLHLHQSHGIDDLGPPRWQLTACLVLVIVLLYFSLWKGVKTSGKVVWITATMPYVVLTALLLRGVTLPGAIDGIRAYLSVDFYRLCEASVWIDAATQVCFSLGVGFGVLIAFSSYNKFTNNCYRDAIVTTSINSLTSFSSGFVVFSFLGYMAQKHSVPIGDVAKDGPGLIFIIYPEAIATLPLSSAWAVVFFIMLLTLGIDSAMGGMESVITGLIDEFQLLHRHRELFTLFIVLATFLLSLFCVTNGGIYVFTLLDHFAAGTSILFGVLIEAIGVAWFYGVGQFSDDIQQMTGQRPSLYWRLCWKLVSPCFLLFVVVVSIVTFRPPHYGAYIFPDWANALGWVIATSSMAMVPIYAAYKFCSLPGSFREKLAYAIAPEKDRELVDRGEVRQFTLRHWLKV

[3] = biological target: T2, NET (Homo sapiens, UniProt P23975); assay: [3H]nisoxetine binding at the NET
T2 sequence (P23975 whole entry): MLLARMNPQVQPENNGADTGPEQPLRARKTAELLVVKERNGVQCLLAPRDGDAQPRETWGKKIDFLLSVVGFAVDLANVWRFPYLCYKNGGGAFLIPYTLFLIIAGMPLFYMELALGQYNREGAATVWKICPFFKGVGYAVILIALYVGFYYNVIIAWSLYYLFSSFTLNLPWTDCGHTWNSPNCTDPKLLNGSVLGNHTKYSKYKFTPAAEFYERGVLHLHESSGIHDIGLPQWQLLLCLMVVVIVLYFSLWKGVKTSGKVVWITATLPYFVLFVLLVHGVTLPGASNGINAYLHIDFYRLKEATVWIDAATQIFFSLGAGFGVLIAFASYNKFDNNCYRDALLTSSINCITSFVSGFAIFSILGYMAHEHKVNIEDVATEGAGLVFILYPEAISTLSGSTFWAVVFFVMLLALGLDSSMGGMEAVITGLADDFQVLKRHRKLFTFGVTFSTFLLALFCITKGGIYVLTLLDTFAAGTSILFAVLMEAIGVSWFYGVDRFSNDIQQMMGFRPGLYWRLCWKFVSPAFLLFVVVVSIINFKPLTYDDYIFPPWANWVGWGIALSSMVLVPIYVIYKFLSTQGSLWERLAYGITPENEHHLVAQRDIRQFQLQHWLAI

[4] = biological target: T2, NET; assay: [3H]DA uptake inhibition at the NET; type: cell-based
[5] = biological target: hDAT Y335A (Homo sapiens, UniProt Q01959, Y335A); assay: [3H]DA uptake inhibition in COS-7 cells expressing hDAT Y335A mutant; type: cell-based
Sequence of hDAT Y335A (Q01959 whole entry Y335A): as the sequence (Q01959 whole entry) above, with Y335A counted along it

[6] = biological target: T1, hDAT WT; assay: [3H]WIN 35,428 binding in COS-7 cells transiently expressing hDAT WT; conditions: R- versus S-modafinil
[7] = tested on: extracellular DA concentrations in the mouse NAc shell; assay: Microdialysis of extracellular DA in the NAc shell; type: in vivo
[8] = tested on: DAT; conditions: rat brain tissue; cited from earlier work

NC(=O)C[S+]([O-])C(c1ccccc1)c1ccccc1 (racemic) [(±)-modafinil]
substitution for the discriminative-stimulus effects of cocaine [1]: fully substituted for cocaine
[3H]DA uptake inhibition potency lower than observed for DA [2]: more than 7 fold

NC(=O)C[S@+]([O-])C(c1ccccc1)c1ccccc1 [S-modafinil, S-(+)-modafinil]
IC50 ([3]; read-out: IC50, inhibition of [3H]nisoxetine binding at the NET, N=3, data not shown): > 100 µM
ED50 Value, substitution for cocaine (95% confidence limits) ([1]; cocaine 5 min, modafinils 60 min before testing): 89.0 (64.0 – 115) μmol/kg
substitution for the discriminative-stimulus effects of cocaine [1]: fully substituted for cocaine
IC50 ([4]; read-out: IC50, inhibition of [3H]DA uptake at the NET, N=3, data not shown): > 100 µM

CCCCN1[C@@H]2CC[C@H]1CC(OC(c1ccc(F)cc1)c1ccc(F)cc1)C2 (stereo partly shown) [JHW 007]
Y335A:WT IC50 ratio for [3H]DA uptake inhibition [5]: ~ 20 fold

NC(=O)C[S@@+]([O-])C(c1ccccc1)c1ccccc1 [R-modafinil, R-(−)-modafinil]
higher affinity for DAT than the S-enantiomer [6]: ~ 3 fold
IC50 [3]: > 100 µM
extracellular DA levels, stimulation as % of DA basal levels ([7]; 30, 100, 300 mg/kg i.p.): approximately 300 % of DA basal levels
time after injection at which DA stimulation was reached ([7]; 30, 100, 300 mg/kg i.p.): 40 to 60 min
substitution for the discriminative-stimulus effects of cocaine [1]: fully substituted for cocaine
higher affinity for the DAT than the S-enantiomer [8]: ~ 3 fold
IC50 [4]: > 100 µM

COC(=O)[C@H]1[C@@H](OC(=O)c2ccccc2)C[C@@H]2CC[C@H]1N2C [cocaine]
extracellular DA levels, maximum as % of basal levels ([7]; 10 – 55 mg/kg): approximately 700 % of basal levels
time after injection of maximum DA ([7]; 10 – 55 mg/kg): ~ 30 min
